Laboratory results: US9011965B2, “Gradient coating for biomedical applications” (Smith & Nephew, Inc., priority 2008, dated 2015)

Experiment: release of bupivacaine from coated samples in PBS, spectrophotometry at 265 nm
Type: physicochemical
Conditions: released from coated samples, 3 mL PBS, 37° C.
Method: The release of Ag, Ca, and Bupivacaine from the prepared coating was confirmed by ICP analysis and UV spectrometry, respectively. The coated samples were immersed in 3 mL PBS for 24 and 48 hours at 37° C. At each time point, the release of bupivacaine was measured spectrophotometrically (Nanodrop, Thermo) at 265 nm. The Bupivacaine standard was prepared by dissolving appropriate amounts of the drug in PBS. PBS was used as blank.

Bupivacaine Concentration in PBS (24 hours): 126 ppm
Bupivacaine Concentration in PBS (48 hours): 141 ppm
Compound: CCCCN1CCCCC1C(=O)Nc1c(C)cccc1C (centres unmarked) [Bupivacaine]
